Assay results from the supplement of paper PMC6965134.
± gives the standard deviation of the averaged measurements.

Assay: TIMS collisional cross section (CCS, N2) of the lipid ion; higher = larger ion cross section
Conditions: ionization mode: positive, one isomer drawn

Row | TIMS collisional cross section (sample type: HeLa) | TIMS collisional cross section (sample type: Liver) | TIMS collisional cross section (sample type: plasma) | SMILES
1 | 232.4 Å² | 234.5 Å² | 233.5 ± 1.3 Å² | CC/C=C\C/C=C\C/C=C\C/C=C\C/C=C\C/C=C\CCC(=O)OC[C@@H](O)COP(=O)([O-])OCC[N+](C)(C)C [LPC 22:6] (ion (formula + adduct): [C30H50NO7P+H] 1+)
2 |  |  | 233.1 Å² | CC/C=C\C/C=C\C/C=C\C/C=C\C/C=C\C/C=C\CCC(=O)OC[C@@H](O)COP(=O)([O-])OCC[N+](C)(C)C [LPC 22:6_0:0] (ion (formula + adduct): [C30H50NO7P+H] 1+)
3 | 258.5 Å² | 258.9 Å² | 259.1 Å² | CCCCCCCCCCCCCCCCCCCCCCCC(=O)OC[C@@H](O)COP(=O)([O-])OCC[N+](C)(C)C [LPC 24:0] (ion (formula + adduct): [C32H66NO7P+H] 1+)
4 | 253.5 Å² | 253.85 ± 0.49 Å² | 253.3 Å² | CCCCCCCC/C=C\CCCCCCCCCCCCCC(=O)OC[C@@H](O)COP(=O)([O-])OCC[N+](C)(C)C [LPC 24:1] (ion (formula + adduct): [C32H64NO7P+H] 1+)
5 | 225.4 Å² |  | 224.8 Å² | CCCC/C=C\CCCCCCCCCCOC[C@@H](O)COP(=O)([O-])OCC[N+](C)(C)C [LPC O- 16:1] (ion (formula + adduct): [C24H50NO6P+H] 1+)
6 | 238.4 Å² | 238.2 Å² |  | CCCCCCCCCCCCCCCCCCOC[C@@H](O)COP(=O)([O-])OCC[N+](C)(C)C [LPC O- 18:0] (ion (formula + adduct): [C26H56NO6P+H] 1+)
7 | 233.6 Å² |  | 233.67 ± 0.64 Å² | CCCCCC/C=C\CCCCCCCCCCOC[C@@H](O)COP(=O)([O-])OCC[N+](C)(C)C [LPC O- 18:1] (ion (formula + adduct): [C26H54NO6P+H] 1+)
8 |  |  | 245.9 Å² | CCCCCCCCCCCCCCCCCCCCOC[C@@H](O)COP(=O)([O-])OCC[N+](C)(C)C [LPC O- 20:0] (ion (formula + adduct): [C28H60NO6P+H] 1+)
9 |  | 214.5 Å² |  | CCCCCCCCCCCCCCCC(=O)O[C@H](CO)COP(=O)(O)OCCN [LPE 16:0] (ion (formula + adduct): [C21H44NO7P+H] 1+)
10 | 214.5 Å² | 215.9 ± 2.1 Å² | 215.7 ± 2.5 Å² | CCCCCCCCCCCCCCCC(=O)OC[C@@H](O)COP(=O)(O)OCCN [LPE 16:0] (ion (formula + adduct): [C21H44NO7P+H] 1+)
11 | 217.4 Å² |  |  | CCCCCCCCCCCCCCCC(=O)OC[C@@H](O)COP(=O)(O)OCCN [LPE 16:0_0:0] (ion (formula + adduct): [C21H44NO7P+H] 1+)
12 |  | 207.8 Å² | 207.4 Å² | CCCCCC/C=C\CCCCCCCC(=O)OC[C@@H](O)COP(=O)(O)OCCN [LPE 16:1] (ion (formula + adduct): [C21H42NO7P+H] 1+)
13 | 210.1 Å² |  |  | CCCCCC/C=C\CCCCCCCC(=O)OC[C@@H](O)COP(=O)(O)OCCN [LPE 16:1_0:0] (ion (formula + adduct): [C21H42NO7P+H] 1+)
14 | 221.7 Å² | 222 Å² |  | CCCCCCCCCCCCCCCCCC(=O)O[C@H](CO)COP(=O)(O)OCCN [LPE 18:0] (ion (formula + adduct): [C23H48NO7P+H] 1+)
15 |  |  | 221.8 Å² | CCCCCCCCCCCCCCCCCC(=O)OC[C@@H](O)COP(=O)(O)OCCN [LPE 18:0] (ion (formula + adduct): [C23H48NO7P+H] 1+)
16 | 218.1 Å² | 215.4 Å² |  | CCCCCC/C=C\CCCCCCCCCC(=O)O[C@H](CO)COP(=O)(O)OCCN [LPE 18:1] (ion (formula + adduct): [C23H46NO7P+H] 1+)
17 |  |  | 211.2 ± 0.85 Å² | CCCCC/C=C\C/C=C\CCCCCCCC(=O)O[C@H](CO)COP(=O)(O)OCCN [LPE 18:2] (ion (formula + adduct): [C23H44NO7P+H] 1+)
18 |  | 211.45 ± 1.1 Å² | 214.1 Å² | CCCCC/C=C\C/C=C\CCCCCCCC(=O)OC[C@@H](O)COP(=O)(O)OCCN [LPE 18:2] (ion (formula + adduct): [C23H44NO7P+H] 1+)

Row | TIMS collisional cross section (sample type: HeLa) | TIMS collisional cross section (sample type: Liver) | TIMS collisional cross section (sample type: plasma) | SMILES
19 |  |  | 208.3 Å² | CCCCC/C=C\C/C=C\C/C=C\CCCCC(=O)OC[C@@H](O)COP(=O)(O)OCCN [LPE 18:3] (ion (formula + adduct): [C23H42NO7P+H] 1+)
20 | 229.2 Å² |  |  | CCCCCCCCCCCCCCCCCCCC(=O)OC[C@@H](O)COP(=O)(O)OCCN [LPE 20:0] (ion (formula + adduct): [C25H52NO7P+H] 1+)
21 |  | 223.5 Å² | 223.3 Å² | CCCCCCCC/C=C\CCCCCCCCCC(=O)OC[C@@H](O)COP(=O)(O)OCCN [LPE 20:1] (ion (formula + adduct): [C25H50NO7P+H] 1+)
22 | 216.8 Å² | 217.2 Å² | 217.3 Å² | CCCCC/C=C\C/C=C\C/C=C\CCCCCCC(=O)OC[C@@H](O)COP(=O)(O)OCCN [LPE 20:3] (ion (formula + adduct): [C25H46NO7P+H] 1+)
23 |  |  | 214.45 ± 0.92 Å² | CCCCC/C=C\C/C=C\C/C=C\C/C=C\CCCC(=O)O[C@H](CO)COP(=O)(O)OCCN [LPE 20:4] (ion (formula + adduct): [C25H44NO7P+H] 1+)
24 |  |  | 210.7 Å² | CC/C=C\C/C=C\C/C=C\C/C=C\C/C=C\CCCC(=O)OC[C@@H](O)COP(=O)(O)OCCN [LPE 20:5] (ion (formula + adduct): [C25H42NO7P+H] 1+)
25 | 236.4 Å² |  |  | CCCCCCCCCCCCCCCCCCCCCC(=O)OC[C@@H](O)COP(=O)(O)OCCN [LPE 22:0] (ion (formula + adduct): [C27H56NO7P+H] 1+)
26 |  | 223.9 Å² |  | CCCCC/C=C\C/C=C\C/C=C\C/C=C\CCCCCC(=O)O[C@H](CO)COP(=O)(O)OCCN [LPE 22:4] (ion (formula + adduct): [C27H48NO7P+H] 1+)
27 | 223.8 Å² |  | 223.6 Å² | CCCCC/C=C\C/C=C\C/C=C\C/C=C\CCCCCC(=O)OC[C@@H](O)COP(=O)(O)OCCN [LPE 22:4] (ion (formula + adduct): [C27H48NO7P+H] 1+)
28 | 220.9 Å² | 221 Å² | 220.3 ± 1.4 Å² | CCCCC/C=C\C/C=C\C/C=C\C/C=C\C/C=C\CCC(=O)OC[C@@H](O)COP(=O)(O)OCCN [LPE 22:5] (ion (formula + adduct): [C27H46NO7P+H] 1+)
29 |  |  | 217.7 Å² | CC/C=C\C/C=C\C/C=C\C/C=C\C/C=C\C/C=C\CCC(=O)O[C@H](CO)COP(=O)(O)OCCN [LPE 22:6] (ion (formula + adduct): [C27H44NO7P+H] 1+)
30 | 218.95 ± 0.071 Å² | 218 Å² | 218.3 ± 0.85 Å² | CC/C=C\C/C=C\C/C=C\C/C=C\C/C=C\C/C=C\CCC(=O)OC[C@@H](O)COP(=O)(O)OCCN [LPE 22:6] (ion (formula + adduct): [C27H44NO7P+H] 1+)
31 |  | 230.1 Å² |  | CCCCC/C=C\C/C=C\CCCCCCCCCC(=O)OC[C@@H](O)COP(=O)(O)OC[C@@H](O)CO [LPG 20:2] (ion (formula + adduct): [C26H49O9P+H] 1+)
32 | 248.8 Å² | 249.1 Å² | 248.8 Å² | CCCCCCCCCCCCCCCCCC(=O)OC[C@@H](O)COP(=O)(O)O[C@H]1C(O)C(O)C(O)[C@@H](O)C1O (some centres undefined) [LPI 18:0] (ion (formula + adduct): [C27H53O12P+H] 1+)
33 |  |  | 243 Å² | CCCCC/C=C\C/C=C\CCCCCCCC(=O)OC[C@@H](O)COP(=O)(O)O[C@H]1C(O)C(O)C(O)[C@@H](O)C1O (some centres undefined) [LPI 18:2_0:0] (ion (formula + adduct): [C27H49O12P+H] 1+)
34 |  | 221.9 Å² |  | CCCCC/C=C\C/C=C\C/C=C\C/C=C\CCCC(=O)OC[C@@H](O)COP(=O)(O)OC[C@H](N)C(=O)O [LPS 20:4] (ion (formula + adduct): [C26H44NO9P+H] 1+)
35 |  | 195.7 Å² | 197.1 Å² | OC[C@]([H])(OC(CCC/C=C\C/C=C\C/C=C\C/C=C\CCCCC)=O)CO [MG 0:0_20:4_0:0] (ion (formula + adduct): [C23H38O4+H] 1+)
36 |  |  | 289.9 ± 0.36 Å² | CCCCC/C=C\C[C@H](O)/C=C/C=C\C/C=C\CCCC(=O)O[C@H](COC(=O)CCCCCCCCCCCCCCC)COP(=O)([O-])OCC[N+](C)(C)C [Oxidized PC 16:0@_20:4] (ion (formula + adduct): [C44H80NO9P+H] 1+)

Row | SMILES | TIMS collisional cross section (sample type: HeLa) | TIMS collisional cross section (sample type: Liver) | TIMS collisional cross section (sample type: plasma)
37 | CCCCCCCCCCCCCCCCOC[C@@H](O)COP(=O)([O-])OCC[N+](C)(C)C [LPC O- 16:0] (ion (formula + adduct): [C24H52NO6P+H] 1+) | 230.5 Å² |  | 230.6 Å²
38 | CCCCCCCC/C=C\CCCCCCCC(=O)OC[C@@H](O)COP(=O)(O)OCCN [LPE 18:1] (ion (formula + adduct): [C23H46NO7P+H] 1+) | 216.4 Å² | 217 ± 2 Å² | 216.93 ± 1.3 Å²
39 | CCCCCCCCCCCCCCCCCC(=O)OC[C@@H](O)COP(=O)(O)OC[C@H](N)C(=O)O [LPS 18:0] (ion (formula + adduct): [C24H48NO9P+H] 1+) | 229.2 Å² | 229.2 Å² | 
